Test results taken from ChEMBL document CHEMBL4507319 (2021).

How the values were obtained:
[1] = tested on: Tyrosine-protein kinase ABL1 (Homo sapiens), P00519 [T315I]; conditions: Compound concentration 1000.0 nM
[2] = tested on: Tyrosine-protein kinase ABL1 (Homo sapiens), P00519 [T315I]; conditions: Compound concentration 1000.0 nM; remark: listed apart in the source
[3] = target: Activin receptor type-2A (Homo sapiens) (UniProt P27037); conditions: Compound concentration 1000.0 nM
[4] = target: Bone morphogenetic protein receptor type-1A (Homo sapiens) (UniProt P36894); conditions: Compound concentration 1000.0 nM
Bone morphogenetic protein receptor type-1A (Homo sapiens), sequence (P36894 whole entry): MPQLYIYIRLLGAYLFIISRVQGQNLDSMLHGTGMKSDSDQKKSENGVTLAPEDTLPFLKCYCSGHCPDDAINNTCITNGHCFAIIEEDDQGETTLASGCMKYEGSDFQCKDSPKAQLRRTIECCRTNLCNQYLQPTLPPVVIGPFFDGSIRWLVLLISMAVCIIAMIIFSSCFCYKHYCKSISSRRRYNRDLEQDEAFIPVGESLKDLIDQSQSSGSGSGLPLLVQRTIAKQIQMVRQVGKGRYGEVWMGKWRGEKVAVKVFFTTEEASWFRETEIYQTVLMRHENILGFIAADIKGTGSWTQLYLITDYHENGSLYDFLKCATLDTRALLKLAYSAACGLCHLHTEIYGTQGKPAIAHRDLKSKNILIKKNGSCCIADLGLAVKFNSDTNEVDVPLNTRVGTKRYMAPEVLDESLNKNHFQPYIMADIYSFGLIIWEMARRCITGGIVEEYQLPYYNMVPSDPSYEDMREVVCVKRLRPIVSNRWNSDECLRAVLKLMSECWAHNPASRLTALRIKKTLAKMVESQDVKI

[5] = target: Cyclin-dependent kinase 2 (Homo sapiens) (UniProt P24941); conditions: Compound concentration 1000.0 nM
[6] = target: Dual specificity tyrosine-phosphorylation-regulated kinase 1A (Homo sapiens) (UniProt Q13627); conditions: Compound concentration 1000.0 nM
[7] = target: Epidermal growth factor receptor (Homo sapiens) (UniProt P00533); conditions: Compound concentration 1000.0 nM
[8] = tested on: eIF-2-alpha kinase GCN2 (Homo sapiens), Q9P2K8 [S808G]; conditions: Compound concentration 1000.0 nM
[9] = target: Homeodomain-interacting protein kinase 3 (Homo sapiens) (UniProt Q9H422); conditions: Compound concentration 1000.0 nM
[10] = target: T1, Tyrosine-protein kinase ITK/TSK (Homo sapiens) (UniProt Q08881); conditions: Compound concentration 1000.0 nM
T1 sequence (whole entry): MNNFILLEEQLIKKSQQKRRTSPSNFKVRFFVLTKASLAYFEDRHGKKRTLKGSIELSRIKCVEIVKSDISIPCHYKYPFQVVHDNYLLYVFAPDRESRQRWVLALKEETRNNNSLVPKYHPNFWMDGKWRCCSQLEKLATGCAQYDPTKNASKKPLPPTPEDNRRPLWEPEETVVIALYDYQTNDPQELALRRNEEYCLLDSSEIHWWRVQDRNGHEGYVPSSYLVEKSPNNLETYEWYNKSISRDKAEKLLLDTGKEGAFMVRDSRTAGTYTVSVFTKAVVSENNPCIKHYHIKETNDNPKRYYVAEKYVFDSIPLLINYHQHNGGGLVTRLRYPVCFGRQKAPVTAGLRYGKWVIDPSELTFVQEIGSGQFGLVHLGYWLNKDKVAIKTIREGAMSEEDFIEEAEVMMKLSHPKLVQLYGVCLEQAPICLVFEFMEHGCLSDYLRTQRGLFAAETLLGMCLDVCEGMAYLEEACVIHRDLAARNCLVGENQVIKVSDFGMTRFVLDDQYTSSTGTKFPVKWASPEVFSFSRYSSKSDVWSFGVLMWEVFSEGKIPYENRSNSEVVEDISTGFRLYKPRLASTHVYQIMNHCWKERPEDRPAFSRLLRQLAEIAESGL

[11] = target: T2, Serine/threonine-protein kinase MAK (Homo sapiens) (UniProt P20794); conditions: Compound concentration 1000.0 nM
T2 sequence (whole entry): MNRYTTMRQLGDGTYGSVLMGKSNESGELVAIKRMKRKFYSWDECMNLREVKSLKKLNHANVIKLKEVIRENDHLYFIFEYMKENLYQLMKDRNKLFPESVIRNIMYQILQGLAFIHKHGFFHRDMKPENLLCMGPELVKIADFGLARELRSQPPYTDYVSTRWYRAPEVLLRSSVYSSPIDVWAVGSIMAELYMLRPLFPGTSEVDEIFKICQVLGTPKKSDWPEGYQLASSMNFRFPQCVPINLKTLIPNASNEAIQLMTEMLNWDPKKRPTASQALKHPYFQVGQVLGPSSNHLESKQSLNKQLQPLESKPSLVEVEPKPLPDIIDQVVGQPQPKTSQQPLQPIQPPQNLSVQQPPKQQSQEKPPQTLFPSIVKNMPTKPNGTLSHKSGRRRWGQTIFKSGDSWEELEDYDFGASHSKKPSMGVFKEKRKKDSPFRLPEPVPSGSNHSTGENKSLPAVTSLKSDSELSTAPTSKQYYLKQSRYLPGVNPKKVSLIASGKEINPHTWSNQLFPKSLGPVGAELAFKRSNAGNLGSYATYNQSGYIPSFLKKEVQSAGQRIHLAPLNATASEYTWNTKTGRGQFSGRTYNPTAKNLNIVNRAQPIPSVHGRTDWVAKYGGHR

[12] = target: Macrophage-stimulating protein receptor (Homo sapiens) (UniProt Q04912); conditions: Compound concentration 1000.0 nM
Macrophage-stimulating protein receptor (Homo sapiens), sequence (Q04912 25-304 limits assumed): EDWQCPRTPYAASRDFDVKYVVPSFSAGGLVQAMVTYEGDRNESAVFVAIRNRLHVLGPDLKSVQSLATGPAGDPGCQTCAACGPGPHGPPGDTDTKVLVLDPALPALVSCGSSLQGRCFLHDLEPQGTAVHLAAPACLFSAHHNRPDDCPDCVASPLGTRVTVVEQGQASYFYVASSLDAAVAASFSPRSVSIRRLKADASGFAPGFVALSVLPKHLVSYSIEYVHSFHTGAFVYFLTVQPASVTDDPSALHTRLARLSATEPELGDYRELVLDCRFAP
Macrophage-stimulating protein receptor (Homo sapiens), sequence (Q04912 310-1400 limits assumed): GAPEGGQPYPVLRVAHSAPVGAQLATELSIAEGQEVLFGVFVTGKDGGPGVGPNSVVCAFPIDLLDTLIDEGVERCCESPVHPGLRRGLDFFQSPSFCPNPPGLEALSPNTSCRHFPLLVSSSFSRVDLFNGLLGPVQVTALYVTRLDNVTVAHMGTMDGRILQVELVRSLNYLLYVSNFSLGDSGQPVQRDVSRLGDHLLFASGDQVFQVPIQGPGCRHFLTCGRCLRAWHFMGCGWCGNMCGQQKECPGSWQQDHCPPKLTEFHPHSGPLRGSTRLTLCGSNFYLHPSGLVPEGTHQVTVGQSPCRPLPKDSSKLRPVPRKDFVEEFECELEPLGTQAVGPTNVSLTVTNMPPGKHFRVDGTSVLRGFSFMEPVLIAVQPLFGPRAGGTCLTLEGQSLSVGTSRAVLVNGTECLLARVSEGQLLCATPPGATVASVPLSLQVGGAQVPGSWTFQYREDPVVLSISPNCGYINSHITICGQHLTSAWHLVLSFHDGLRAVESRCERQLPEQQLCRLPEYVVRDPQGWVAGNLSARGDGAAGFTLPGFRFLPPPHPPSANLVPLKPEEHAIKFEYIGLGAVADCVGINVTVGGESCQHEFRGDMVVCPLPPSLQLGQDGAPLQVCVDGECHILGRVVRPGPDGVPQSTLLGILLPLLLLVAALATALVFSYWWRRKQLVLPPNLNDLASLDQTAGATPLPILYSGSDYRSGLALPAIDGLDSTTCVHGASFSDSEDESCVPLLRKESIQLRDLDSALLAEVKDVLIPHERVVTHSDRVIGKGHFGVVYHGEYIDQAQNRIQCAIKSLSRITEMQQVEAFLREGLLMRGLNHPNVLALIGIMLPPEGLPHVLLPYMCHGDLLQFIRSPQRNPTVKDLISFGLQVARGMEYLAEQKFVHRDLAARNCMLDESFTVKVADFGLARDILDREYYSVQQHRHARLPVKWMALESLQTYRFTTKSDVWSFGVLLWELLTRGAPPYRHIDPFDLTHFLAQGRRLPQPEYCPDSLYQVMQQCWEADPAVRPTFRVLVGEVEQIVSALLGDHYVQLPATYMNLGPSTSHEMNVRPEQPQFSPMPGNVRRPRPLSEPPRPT

[13] = target: Myosin-IIIa (Homo sapiens) (UniProt Q8NEV4); conditions: Compound concentration 1000.0 nM
Myosin-IIIa (Homo sapiens), sequence (Q8NEV4 whole entry): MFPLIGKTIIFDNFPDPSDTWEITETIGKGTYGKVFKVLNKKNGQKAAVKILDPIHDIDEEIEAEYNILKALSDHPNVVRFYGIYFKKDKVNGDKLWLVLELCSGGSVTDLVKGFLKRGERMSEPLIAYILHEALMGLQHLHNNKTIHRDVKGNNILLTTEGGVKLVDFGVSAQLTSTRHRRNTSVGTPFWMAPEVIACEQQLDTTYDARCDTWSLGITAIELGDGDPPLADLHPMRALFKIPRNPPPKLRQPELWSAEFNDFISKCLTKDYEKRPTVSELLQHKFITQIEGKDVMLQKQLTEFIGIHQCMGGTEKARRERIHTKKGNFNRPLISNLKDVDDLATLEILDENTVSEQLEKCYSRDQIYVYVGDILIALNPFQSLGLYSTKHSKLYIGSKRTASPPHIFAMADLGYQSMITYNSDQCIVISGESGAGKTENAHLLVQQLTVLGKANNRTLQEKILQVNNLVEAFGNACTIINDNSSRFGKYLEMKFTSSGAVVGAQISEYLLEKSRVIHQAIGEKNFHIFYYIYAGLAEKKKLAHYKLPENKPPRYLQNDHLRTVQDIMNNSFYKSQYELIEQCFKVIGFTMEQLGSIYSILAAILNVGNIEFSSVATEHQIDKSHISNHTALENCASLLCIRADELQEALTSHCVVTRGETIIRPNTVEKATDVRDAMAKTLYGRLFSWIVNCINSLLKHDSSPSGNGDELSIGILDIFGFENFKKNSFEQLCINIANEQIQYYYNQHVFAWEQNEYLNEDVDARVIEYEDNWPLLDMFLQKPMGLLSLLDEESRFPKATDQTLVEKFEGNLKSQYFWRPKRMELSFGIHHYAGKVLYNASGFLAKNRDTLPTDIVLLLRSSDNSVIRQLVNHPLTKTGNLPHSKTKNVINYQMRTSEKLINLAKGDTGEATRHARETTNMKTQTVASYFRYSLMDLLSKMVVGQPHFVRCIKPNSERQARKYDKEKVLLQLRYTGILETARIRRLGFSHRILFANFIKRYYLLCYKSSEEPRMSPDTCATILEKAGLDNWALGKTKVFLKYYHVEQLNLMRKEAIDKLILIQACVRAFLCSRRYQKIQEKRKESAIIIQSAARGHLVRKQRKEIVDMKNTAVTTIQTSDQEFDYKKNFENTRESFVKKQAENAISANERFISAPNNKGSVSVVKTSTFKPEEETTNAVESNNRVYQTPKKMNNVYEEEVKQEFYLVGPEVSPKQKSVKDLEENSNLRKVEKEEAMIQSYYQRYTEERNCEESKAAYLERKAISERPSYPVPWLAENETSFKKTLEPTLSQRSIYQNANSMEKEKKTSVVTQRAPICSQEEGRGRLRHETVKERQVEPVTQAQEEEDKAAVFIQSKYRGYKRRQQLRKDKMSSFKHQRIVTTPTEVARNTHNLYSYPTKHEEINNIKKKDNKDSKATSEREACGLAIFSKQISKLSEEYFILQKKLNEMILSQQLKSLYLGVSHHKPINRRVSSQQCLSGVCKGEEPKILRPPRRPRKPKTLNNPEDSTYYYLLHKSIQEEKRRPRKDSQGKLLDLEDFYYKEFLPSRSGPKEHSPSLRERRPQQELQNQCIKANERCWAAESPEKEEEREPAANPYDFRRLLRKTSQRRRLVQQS

[14] = target: Serine/threonine-protein kinase 38 (Homo sapiens) (UniProt Q15208); conditions: Compound concentration 1000.0 nM
[15] = target: Mitogen-activated protein kinase kinase kinase 14 (Homo sapiens) (UniProt Q99558); conditions: Compound concentration 1000.0 nM
Mitogen-activated protein kinase kinase kinase 14 (Homo sapiens), sequence (Q99558 whole entry, looked up): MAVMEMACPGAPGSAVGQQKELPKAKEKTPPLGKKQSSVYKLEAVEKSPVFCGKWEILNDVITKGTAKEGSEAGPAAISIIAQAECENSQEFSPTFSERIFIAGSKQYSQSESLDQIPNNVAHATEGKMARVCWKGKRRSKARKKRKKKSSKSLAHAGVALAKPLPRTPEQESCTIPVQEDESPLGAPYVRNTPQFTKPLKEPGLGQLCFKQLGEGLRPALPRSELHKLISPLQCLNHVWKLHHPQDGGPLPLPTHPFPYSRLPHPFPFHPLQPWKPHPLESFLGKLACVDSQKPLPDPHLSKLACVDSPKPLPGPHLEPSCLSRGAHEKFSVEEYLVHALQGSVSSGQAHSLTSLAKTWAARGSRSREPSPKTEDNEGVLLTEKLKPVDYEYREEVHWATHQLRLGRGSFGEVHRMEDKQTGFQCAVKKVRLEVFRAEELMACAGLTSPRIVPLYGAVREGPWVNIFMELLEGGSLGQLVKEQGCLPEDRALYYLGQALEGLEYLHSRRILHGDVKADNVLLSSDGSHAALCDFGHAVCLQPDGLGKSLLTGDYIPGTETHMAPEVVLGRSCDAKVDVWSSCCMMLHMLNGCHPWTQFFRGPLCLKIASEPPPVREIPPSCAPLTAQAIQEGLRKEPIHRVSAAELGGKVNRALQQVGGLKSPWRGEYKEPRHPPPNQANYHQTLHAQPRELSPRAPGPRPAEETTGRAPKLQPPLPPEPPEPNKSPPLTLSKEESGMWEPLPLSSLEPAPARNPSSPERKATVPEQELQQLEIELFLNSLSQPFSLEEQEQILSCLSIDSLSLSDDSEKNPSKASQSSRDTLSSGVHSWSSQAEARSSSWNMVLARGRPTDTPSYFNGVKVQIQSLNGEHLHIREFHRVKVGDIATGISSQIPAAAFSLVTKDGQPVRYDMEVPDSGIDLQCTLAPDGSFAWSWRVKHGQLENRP

[16] = target: Serine/threonine-protein kinase PAK 1 (Homo sapiens) (UniProt Q13153); conditions: Compound concentration 1000.0 nM
[17] = target: Serine/threonine-protein kinase pim-2 (Homo sapiens) (UniProt Q9P1W9); conditions: Compound concentration 1000.0 nM
[18] = target: Serine/threonine-protein kinase PLK3 (Homo sapiens) (UniProt Q9H4B4); conditions: Compound concentration 1000.0 nM
[19] = target: SRSF protein kinase 1 (Homo sapiens) (UniProt Q96SB4); conditions: Compound concentration 1000.0 nM
[20] = target: Tyrosine-protein kinase SYK (Homo sapiens) (UniProt P43405); conditions: Compound concentration 1000.0 nM
[21] = target: Tyrosine-protein kinase Yes (Homo sapiens) (UniProt P07947); conditions: Compound concentration 1000.0 nM
[22] = target: Mitogen-activated protein kinase kinase kinase 20 (Homo sapiens) (UniProt Q9NYL2); conditions: Compound concentration 1000.0 nM
[23] = target: 5-hydroxytryptamine receptor 1E (Homo sapiens) (UniProt P28566); conditions: Compound concentration 10.0 uM
[24] = target: 5-hydroxytryptamine receptor 6 (Homo sapiens) (UniProt P50406); conditions: Compound concentration 10.0 uM
[25] = target: Mu-type opioid receptor (Homo sapiens) (UniProt P35372); conditions: Compound concentration 10.0 uM
[26] = target: Alpha-1D adrenergic receptor (Homo sapiens) (UniProt P25100); conditions: Compound concentration 10.0 uM
Alpha-1D adrenergic receptor (Homo sapiens), sequence (P25100 whole entry): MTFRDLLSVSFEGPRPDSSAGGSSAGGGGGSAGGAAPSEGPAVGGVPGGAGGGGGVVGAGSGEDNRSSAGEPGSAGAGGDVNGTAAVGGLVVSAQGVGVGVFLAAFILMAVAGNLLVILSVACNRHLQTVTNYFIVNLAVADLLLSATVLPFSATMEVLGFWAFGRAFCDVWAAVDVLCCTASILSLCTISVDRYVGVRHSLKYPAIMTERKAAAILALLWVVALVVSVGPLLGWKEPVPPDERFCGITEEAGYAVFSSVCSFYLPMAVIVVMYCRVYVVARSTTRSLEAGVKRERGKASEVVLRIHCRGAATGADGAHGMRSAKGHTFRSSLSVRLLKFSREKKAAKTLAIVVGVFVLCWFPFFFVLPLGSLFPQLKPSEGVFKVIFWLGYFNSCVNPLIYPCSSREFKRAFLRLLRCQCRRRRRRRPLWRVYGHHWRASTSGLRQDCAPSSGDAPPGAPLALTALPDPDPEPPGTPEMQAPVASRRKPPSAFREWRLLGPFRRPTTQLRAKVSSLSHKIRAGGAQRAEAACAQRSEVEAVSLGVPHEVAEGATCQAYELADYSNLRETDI

Compound	residual activity [1] [%]	residual activity [2] [%]	residual activity [3] [%]	residual activity [4] [%]	residual activity [5] [%]	residual activity [6] [%]	residual activity [7] [%]	residual activity [8] [%]	residual activity [9] [%]	residual activity [10] [%]	residual activity [11] [%]	residual activity [12] [%]	residual activity [13] [%]	residual activity [14] [%]	residual activity [15] [%]	residual activity [16] [%]	residual activity [17] [%]	residual activity [18] [%]	residual activity [19] [%]	residual activity [20] [%]	other results
CCc1ccccc1C(=O)Nc1n[nH]c2c(C)c(F)c(C3C(C#N)=C(C)N(C)C(C)=C3C#N)cc12 [BAY-3827]	100	72	100	87	100	100	85	43	100	86	100	100	68	100	75	82	99	100	89	100	residual activity [21]: 86%; residual activity [22]: 90%; inhibition [23]: 2.66%; inhibition [24]: 9.23%; inhibition [25]: 30.5%; inhibition [26]: 2.75%
CC1=C(C#N)C(c2ccc3c(c2)c(NC(=O)c2ccccc2C)nn3C)C(C#N)=C(C)N1 [BAY-974]	88	97	97	100	86	97	84	61	73	97	100	95	86	96	69	100	91	80	89	100	residual activity [21]: 88%; residual activity [22]: 100%; inhibition [23]: 11.4%; inhibition [24]: 2.21%; inhibition [25]: 13.7%; inhibition [26]: 4.71%
